Results published in patent US12692232B2, “Indole carboxamide compound, preparation therefor and use thereof” (NANJING RUISHUNING MEDICAL TECHNOLOGY CO., LTD., priority 2021, dated 2026).

Tested on: mouse model of renal fibrosis (UUO)
Assay: Mouse model of renal fibrosis (unilateral ureteral obstruction, UUO)
Format: in vivo
Settings: for urea nitrogen level: model 17.56±0.48; for serum creatinine level: model 32.48±0.87; for urine protein level: model 888.5±264.8; for extent of renal fibrosis, pathological staining (H&E, Masson, Sirius red): FIG. 2, control compound 25 mg/kg, losartan 50 mg/kg; for body weight compared with the UUO model group / kidney weight compared with the UUO model group: gavage once daily 14 days, not statistically different (P>0.05)
Description: The therapeutic effect of the compounds of the present invention (as exemplified by Compound 1-1 obtained in Example 1) on renal fibrosis was determined using a mouse model of renal fibrosis. The method was as follows:
Grouping of animals: male C57BL/6J mice aged 8 weeks were given adaptive feeding for 3 days and grouped into a sham operation group, a sham operation-treatment group, a Unilateral ureteral obstruction (UUO) model group, a low-dose (10 mg/kg) treatment group, a medium-dose (25 mg/kg) treatment group, a high-dose (50 mg/kg) treatment group, a medium-dose (25 mg/kg) treatment group of indole analogue 3-[(1-methyl-1H-indole-2-carbonyl)amino]propionic acid disclosed in CN2019107285315, and a positive control group of losartan (50 mg/kg), with 10 animals in each group. Mice in the model and the treatment groups were anesthetized by intraperitoneal injection of 0.5% sodium pentobarbital at a dose of 0.1 mL/10 g. The mice were fixed on the operating table and cut open in layers from the right side of the mid-abdomen to locate the left kidney, and the ends of the ureter were ligated, while the ureter was cut off between the two ligations; the sham operation group was operated as described above and the ligations were not performed. Post-operative organs were repositioned, sutured, and sterilized with iodophor after suturing was completed. Immediately after operation, the drug was administered by gavage once daily for 14 days. Urine sample collection: animals were placed in separate metabolic cages by group on days 0, 5, 10 and 14 after modelling, without food or water, and urine samples were collected from each group of mice.
The protein levels in urine were determined using Coomassie brilliant blue (CBB) method by using urine protein quantitative test kit (Nanjing Jiancheng Bioengineering Institute). CBB working solution was prepared according to the kit instructions. 0.05 mL of each urine sample was mixed with 3 mL of CBB working solution, the mixture was left to stand for 5 min, and the absorbance value of each sample was determined at 595 nm. The protein levels in each group of urine samples were calculated according to the protein standardization formula: urine protein levels (mg/L)=(measured OD−blank OD)/(standard OD−blank OD)×563 mg/L.
Collection of serum sample: orbital blood from each mouse was collected in an EP tube, placed at 37° C. for 20 minutes, and centrifuged to obtain the upper layer of serum.
Collection of plasma sample: orbital blood from each mouse was collected in an anticoagulation tube, mixed well and stored at 4° C. for later use.
Determination of creatinine levels in urine and serum by the picric acid colorimetric method: creatinine levels in urine and serum were determined by using the creatinine test kit (Nanjing Jiancheng Bioengineering Institute). According to the kit instructions, 1.5 mL of urine sample or serum sample and 0.5 mL of picric acid solution, 0.5 mL of 0.5 mol/L sodium hydroxide solution were mixed, heated in water bath at 37° C. for 10 minutes. The absorbance value of each sample was determined using a UV spectrophotometer at a wavelength of 510 nm. Creatinine levels in samples of each group were calculated according to the formula: creatinine level (μmol/L) in serum or urine=(measured OD value−blank OD value)/(standard OD value−blank OD value)×50 μmol/L×(dilution ratio 201).
Determination of urea nitrogen level in plasma by diacetyl monoxime method: urea nitrogen level was determined was determined by using blood urea nitrogen (BUN) test kit (Nanjing Jiancheng Bioengineering Institute). According to the kit instructions, 0.05 mL of anticoagulated plasma samples were mixed with 1 mL of oxime solution and 1 mL of acid working solution, and the mixtures were placed in a boiling water bath for 15 min. A UV-visible spectrophotometer was used to determine the absorbance values of each tube at a wavelength of 520 nm. […]

Structure (SMILES) | creatinine level reduced compared with the model group (25 mg/kg gavage 14 days) [%] | urea nitrogen level reduced compared with the model group (25 mg/kg gavage 14 days) [%] | urine protein level reduced compared with the model group (25 mg/kg gavage 14 days) [%] | urea nitrogen level (25 mg/kg gavage 14 days) [mmol/L] | serum creatinine level (25 mg/kg gavage 14 days) [µmol/L] | urine protein level (25 mg/kg gavage 14 days) [mg/L] | extent of renal fibrosis, pathological staining (H&E, Masson, Sirius red) | body weight compared with the UUO model group | kidney weight compared with the UUO model group | other results
Cn1c(C(=O)NCCC(=O)O)cc2ccccc21 [3-[(1-methyl-1H-indole-2-carbonyl)amino]propionic acid, reference compound] | 18.3 | 20.6 | 30.1 | 13.94 ± 0.42 | 26.52 ± 0.86 | 621 ± 81.3 | shows less improvement in fibrotic tissue proliferation and renal tubular lumen dilation | slight increase in body weight | slight decrease in kidney weight | 
CC(=O)OCCCNC(=O)c1c(C=O)c2ccccc2n1C [compound 1-1, propyl 3-[(3-formyl-1-methyl-1H-indole-2-carbonyl)amino]acetate] | 20.7 | 30.0 | 37.7 | 12.30 ± 0.33 | 25.76 ± 1.31 | 554 ± 143 | significantly attenuates tubular lumen dilatation and glomerular atrophy in a dose-dependent manner | slight increase in body weight | slight decrease in kidney weight | creatinine level reduced compared with the model group (10 mg/kg gavage 14 days): 17.2%; urea nitrogen level reduced compared with the model group (10 mg/kg gavage 14 days): 24.7%; urine protein level reduced compared with the model group (10 mg/kg gavage 14 days): 27.4%; urea nitrogen level (10 mg/kg gavage 14 days): 13.23 ± 0.62 mmol/L; serum creatinine level (10 mg/kg gavage 14 days): 26.88 ± 0.86 µmol/L; urine protein level (10 mg/kg gavage 14 days): 645 ± 165 mg/L; creatinine level reduced compared with the model group (50 mg/kg gavage 14 days): 27.6%; urea nitrogen level reduced compared with the model group (50 mg/kg gavage 14 days): 37.7%; urine protein level reduced compared with the model group (50 mg/kg gavage 14 days): 52.6%; urea nitrogen level (50 mg/kg gavage 14 days): 10.94 ± 0.42 mmol/L; serum creatinine level (50 mg/kg gavage 14 days): 23.52 ± 0.86 µmol/L; urine protein level (50 mg/kg gavage 14 days): 421 ± 82.3 mg/L
